Source: article PMC7066107 (Investigational New Drugs, 2019)
“Also recorded” adds a separate entry of the source.

Key:
[1] = Plasma pharmacokinetics of navoximod in phase I study; conditions: for Dose proportionality of AUC and Cmax: 200-1000 mg
Procedure: The efficacy outcomes were the response rate, disease control rate, progression-free survival (PFS) and duration of response. Efficacy outcomes were assessed using the Response Evaluation Criteria in Solid Tumours (RECIST) version 1.1. Plasma concentrations of kynurenine and tryptophan and their ratios and the presence of UGT1A1*6 and UGT1A1*28 polymorphisms were the exploratory outcomes of this study.
(§1) Safety endpoints were analysed in the safety population, which consisted of patients who received ≥1 dose of the study drug. Efficacy endpoints were analysed in the full analysis set, which consisted of patients who received ≥1 dose of the study drug and underwent ≥1 post-baseline efficacy assessment. A summary of AEs, TRAEs and DLTs by mapped term, appropriate thesaurus level and severity was provided for each cohort. Summary statistics, including mean, standard deviation, coefficient of variation, median, and minimum and maximum, were calculated for pharmacokinetic and pharmacodynamic parameters.
Schedule for blood sampling for pharmacokinetic assessments
Visit pharmacokinetics kynurenine/tryptophan
(time window) pharmacodynamics (time
Cycle 0 Day 1 5 min before dosing (−30 min) 5 min before dosing (−30 min)
30 min after dosing (±5 min) 30 min after dosing (±5 min)
1 hr after dosing (±5 min) 1 hr after dosing (±5 min)
2 hr after dosing (±5 min) 2 hr after dosing (±5 min)
4 hr after dosing (±10 min) 4 hr after dosing (±10 min)
6 hr after dosing (±30 min) 6 hr after dosing (±30 min)
8 hr after dosing (±30 min) 8 hr after dosing (±30 min)
12 hr after dosing (±30 min) 12 hr after dosing (±30 min)
Cycle 0 Day 2 24 hr after dosing on Cycle 0 Day 1 24 hr after dosing on Cycle 0 Day 1
Cycle 0 Day 3 48 hr after dosing on Cycle 0 Day 1 –
(±2 hr), before dosing on Cycle 1
Cycle 1 Day 8 5 min before dosing (−30 min) –
Cycle 2 Day 1 5 min before dosing (−30 min) 5 min before dosing (−30 min)
12 hr after first dose (±60 min), 12 hr after first dose (±60 min),
before second dose before second dose
Cycle 4 Day 1 5 min before dosing (−30 min) –
Cycle 9 Day 1 5 min before dosing (−30 min) –
Last observation Any time –
12 hr after dosing (±60 min) 12 hr after dosing (±60 min)
(±2 hr), before dosing on Cycle 1, Day

advanced solid tumours = experiment: Efficacy by RECIST version 1.1 (best overall response, disease control, PFS); conditions: Stage 1
Procedure: The efficacy outcomes were the response rate, disease control rate, progression-free survival (PFS) and duration of response. Efficacy outcomes were assessed using the Response Evaluation Criteria in Solid Tumours (RECIST) version 1.1.
Efficacy endpoints were analysed in the full analysis set, which consisted of patients who received ≥1 dose of the study drug and underwent ≥1 post-baseline efficacy assessment.

[2] = test system: Japanese patients with advanced solid tumours
Procedure: The study consisted of two stages (Fig. 1).
Recruitment of patients to each dose level was sequential using the standard 3 + 3 study design. […] At each dose level, treatment was continued until disease progression, DLT or other adverse event (AE) that would hinder the patient’s participation in the study, or until the patient requested discontinuation from the study.
Safety, pharmacokinetics, efficacy, exploratory pharmacodynamics and genetic outcomes were assessed in this study. The safety outcomes were the incidence, type, severity and time of onset of DLTs, AEs and treatment-related AEs (TRAEs). […] In addition, the maximum tolerated dose (MTD) was determined on the basis of DLTs.
as §1
Adverse events that could be considered dose-limiting toxicities
Grade 4 neutropenia persisting for ≥5 days or requiring treatment with G-CSF
Grade 4 thrombocytopenia or grade 3 thrombocytopenia requiring platelet transfusion
Grade ≥3 non-hematologic toxicity (excluding transient electrolyte abnormalities) Abnormal
toxicity will be assessed as DLTs only if they meet the following criteria. Grade ≥3 laboratory
ALP: A grade ≥3 increase persisting for ≥3 days will be assessed as a DLT.
Diarrhoea, nausea, vomiting, skin toxicity: A grade ≥3 event persisting for ≥1 week

IDO1 = conditions: following oral administration; cited from earlier work
[3] = test system: patients with advanced or recurrent solid tumours; conditions: cited from earlier work

## O[C@H](C[C@H]1c2c(F)cccc2-c2cncn21)[C@H]1CC[C@H](O)CC1 [Navoximod]
[1]; patients with UGT1A1 −/*28
  Dose-corrected navoximod exposure by UGT1A1 genotype: higher
[1]; patients with UGT1A1 −/−, −/*6 and *6/*6
  Dose-corrected navoximod exposure by UGT1A1 genotype: similar
[1]; single oral dose
  Dose proportionality of AUC and Cmax: dose-proportional
[1]; single oral dose, listed as navoximod
  Dose proportionality of AUC and Cmax: linear pharmacokinetics; also recorded: changed dose-proportionally
[1]; single oral dose, Stage 1 or Stage 2
  Time at which mean plasma concentration peaked: 15 to 60 min
Advanced solid tumours
  Complete response (CR) and partial response (PR): not observed
  PFS, range: 9 to 259 days
Advanced solid tumours; all doses, n = 10
  Best overall response progressive disease (PD): five
  Patients with stable disease: 50%
Advanced solid tumours; navoximod 400 mg
  Best overall response progressive disease (PD): 3 n
Advanced solid tumours; navoximod 600 mg
  Best overall response progressive disease (PD): 2 n
[2]; Stage 1, monotherapy up to 1000 mg BID
  Maximum tolerated dose (MTD): not reached
[2]; human, in vivo
  Any TRAE, All grades: 6 n
  Any TRAE, Grade ≥ 3: 2 n
  Chromaturia, All grades: 5 n
  Chromaturia, Grade ≥ 3: 0 n
  Grade 4 or 5 TRAEs: No grade 4 or 5 TRAEs were observed
  Incidence of chromaturia: 55%
  Maculopapular rash, All grades: 2 n
  Maculopapular rash, Grade ≥ 3: 1 n
  Patients with Grade ≥ 3 TRAEs: 20%
  Patients with TRAE chromaturia, any grade: 50%
  Patients with TRAE maculopapular rash, any grade: 20%
  Patients with TRAEs: 60%
  Symptomatic grade 3 or higher TRAE maculopapular rash: 5%
IDO1
  Reduction of plasma and tissue kynurenine concentrations: approximately 50%
[3]; monotherapy 100-800 mg twice daily, 22 patients
  MTD: not reached
[3]; monotherapy
  CRs or PRs: no CRs or PRs were observed
  Half-life: approximately 12 h
  Linearity of pharmacokinetics: linear pharmacokinetics
  Time to peak plasma concentration: approximately 60 min
[3]; navoximod 400 mg, 600 mg or 800 mg, 2–4 h after administration
  Decrease of plasma kynurenine levels: 25–30%
[3]; two patients of 22, lower gastrointestinal haemorrhage, diverticulitis
  Patients with Grade 3 or higher AEs: 9%
